Assay [1] has as its system Tcy2 (DNA, G4) GGTTGGTTGGTTGGTTTT
Briefly: circular dichroism. As to conditions: 10 mM MOPS pH 7.0, room temperature, 5 min; 1 μM DNA, 1 ppm cyromazine.

Assay [2] has the same test system. The experiment in a line: FAM fluorescence quenching. As to conditions: 10 mM Tris-acetate pH 8.0, room temperature, 25 nM DNA.
Assay [3] relates to Random DNA (DNA, single strand) ATCGACATGTAGCCGATGGC
Briefly: FAM fluorescence quenching. Conditions: 10 mM Tris-acetate pH 8.0, room temperature; 25 nM DNA; highest tested 100 ppb.

Setting [4] is: tested at 50 ppb, no fluorescence change.

This note sets out measurements from PMC9088062 (2018).

Regarding `Nc1nc(N)nc(NC2CC2)n1`, the binding entry in assay [1] is recorded as “yes”; in assay [2] (2 min, static quenching), “yes”; in assay [3] it was “no”.

Regarding `c1ccc([C@H]2CN3CCSC3=N2)cc1`, the binding result in assay [2] (setting [4]) is reported as “no”.

Take `Cc1ccc(N=CN(C)C=Nc2ccc(C)cc2C)c(C)c1`: the binding result in assay [2] (setting [4]) is reported as “no”.

Turning to `O=C(N[C@H](CO)[C@H](O)c1ccc([N+](=O)[O-])cc1)C(Cl)Cl`, the binding result in assay [2] (setting [4]) is recorded as “no”.

Consider `Cc1nc(C)c(Cl)c(O)c1Cl`, for which the binding entry in assay [2] (setting [4]) was “no”.

Take `CN(C)[C@@H]1C(=O)C(C(N)=O)=C(O)[C@@]2(O)C(=O)C3=C(O)c4c(O)cccc4[C@@](C)(O)[C@H]3[C@H](O)[C@@H]12`: in assay [2] (setting [4]), the binding result is on record as “no”.

For the compound `CS(=O)(=O)c1ccc([C@@H](O)[C@@H](CO)NC(=O)C(Cl)Cl)cc1`, the binding entry in assay [2] (setting [4]) is reported as “no”.
